Measured values taken from ChEMBL document CHEMBL1201862, “PubChem BioAssay data set” (2004).
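Following 48 hours of exposure in 96-well plates, responses at five concentrations were used to interpolate endpoints linearly. Abbreviation: GI50, concentration required for 50% inhibition of growth.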 Active and inactive are the calls of the source. Rule as the data show it: active = GI50 up to about 1.1 µM and inactive = higher.

Tests used:
Test in all cases: DTP human tumour cell line panel, 48 h
ACHN = test system: ACHN
COLO 205 = test system: COLO 205
KM12 = test system: KM12
Malme-3M = test system: Malme-3M
NCI-H522 = test system: NCI-H522
OVCAR-5 = test system: OVCAR-5
RPMI-8226 = test system: RPMI-8226
SF-268 = test system: SF-268
SF-539 = test system: SF-539
SK-MEL-28 = test system: SK-MEL-28
SK-MEL-2 = test system: SK-MEL-2
SNB-19 = test system: SNB-19
SW-620 = test system: SW-620
TK-10 = test system: TK-10
UACC-257 = test system: UACC-257
UACC-62 = test system: UACC-62

Measured: GI50

CCOc1ccc(C(CN2CCOCC2)C(C)=O)cc1OC (stereo not drawn)
inactive: ACHN 14.2 µM | COLO 205 6.62 µM | KM12 15.3 µM | Malme-3M 18.5 µM | NCI-H522 1.22 µM | OVCAR-5 19 µM | RPMI-8226 11.5 µM | SF-268 19.7 µM | SF-539 16 µM | SK-MEL-28 19.1 µM | SK-MEL-2 14.3 µM | SNB-19 17.1 µM | SW-620 16.4 µM | TK-10 17.1 µM | UACC-257 22.1 µM | UACC-62 17.3 µM

Cc1cccc(NC(=O)c2cc3cc(/N=N/c4ccccc4Cl)ccc3oc2=O)c1
inactive: ACHN 40 µM | COLO 205 57.7 µM | KM12 15.4 µM | Malme-3M 45.4 µM | NCI-H522 22.3 µM | OVCAR-5 23.4 µM | RPMI-8226 19.9 µM | SF-268 23.3 µM | SF-539 30.3 µM | SK-MEL-28 35.4 µM | SNB-19 49 µM | SW-620 54.1 µM | TK-10 36 µM | UACC-257 40.4 µM | UACC-62 16.3 µM

CCOP(=O)(OCC)C1C(=O)O[C@H]2CCCC[C@@H]12 (stereo partly drawn)
inactive: ACHN > 100 µM | COLO 205 > 100 µM | KM12 > 100 µM | Malme-3M > 100 µM | OVCAR-5 > 100 µM | RPMI-8226 > 100 µM | SF-268 > 100 µM | SF-539 > 100 µM | SK-MEL-28 > 100 µM | SK-MEL-2 > 100 µM | SNB-19 > 100 µM | SW-620 > 100 µM | TK-10 > 100 µM | UACC-257 > 100 µM | UACC-62 > 100 µM

CN1CCCc2nc3ccccc3n2C1
inactive: ACHN > 100 µM | COLO 205 > 100 µM | KM12 > 100 µM | Malme-3M > 100 µM | NCI-H522 97.7 µM | OVCAR-5 > 100 µM | RPMI-8226 23.7 µM | SF-268 > 100 µM | SF-539 > 100 µM | SK-MEL-28 > 100 µM | SK-MEL-2 > 100 µM | SNB-19 > 100 µM | SW-620 > 100 µM | TK-10 > 100 µM | UACC-257 > 100 µM | UACC-62 > 100 µM

COc1ccc(OC)c(NC(=O)C(=O)C(C(C)=O)c2nc3ccc(Cl)cc3nc2O)c1 (stereo not drawn)
inactive: ACHN > 50 µM | COLO 205 > 50 µM | KM12 > 50 µM | Malme-3M > 50 µM | OVCAR-5 > 50 µM | RPMI-8226 > 50 µM | SF-268 > 50 µM | SF-539 > 50 µM | SK-MEL-28 > 50 µM | SK-MEL-2 > 50 µM | SNB-19 > 50 µM | SW-620 > 50 µM | TK-10 > 50 µM | UACC-257 > 50 µM | UACC-62 > 50 µM

Cn1cc(NC(=O)c2cc(NC(=O)CCCCCCCCCCC(=O)Nc3cc(C(=O)Nc4cc(C(=O)NCCC(=N)N)n(C)c4)n(C)c3)cn2C)cc1C(=O)NCCC(=N)N
inactive: ACHN 29.9 µM | COLO 205 9.73 µM | KM12 12.4 µM | Malme-3M 2.18 µM | NCI-H522 12.1 µM | OVCAR-5 67.3 µM | SF-268 30.6 µM | SF-539 47.6 µM | SK-MEL-28 > 10 µM | SK-MEL-2 35.8 µM | SNB-19 34.4 µM | SW-620 17.9 µM | TK-10 29.4 µM | UACC-257 7.8 µM | UACC-62 7.5 µM

CCOc1ccccc1N1C(=O)C(=O)C(c2nc3ccccc3s2)C(=O)C1=O
inactive: ACHN 5.86 µM | COLO 205 > 100 µM | KM12 98.2 µM | Malme-3M 33.8 µM | OVCAR-5 > 100 µM | RPMI-8226 > 100 µM | SF-268 82.6 µM | SF-539 > 100 µM | SK-MEL-28 > 100 µM | SK-MEL-2 > 100 µM | SNB-19 56.5 µM | SW-620 58.9 µM | TK-10 24.5 µM | UACC-257 > 100 µM | UACC-62 > 100 µM

COC(=O)C1CCc2nnc(-c3ccccc3)n21 (stereo not drawn)
inactive: ACHN > 100 µM | COLO 205 > 100 µM | KM12 > 100 µM | Malme-3M > 100 µM | NCI-H522 > 100 µM | OVCAR-5 > 100 µM | RPMI-8226 > 100 µM | SF-268 > 100 µM | SF-539 > 100 µM | SK-MEL-28 > 100 µM | SK-MEL-2 > 100 µM | SNB-19 > 100 µM | SW-620 > 100 µM | TK-10 > 100 µM | UACC-257 > 100 µM | UACC-62 > 100 µM

Cn1c(=O)nc2n(-c3ccc(F)c(F)c3)c3ccccc3nc-2c1=O
inactive: ACHN 8.79 µM | COLO 205 4.08 µM | KM12 20.8 µM | Malme-3M 11.3 µM | NCI-H522 10.4 µM | OVCAR-5 22.3 µM | RPMI-8226 16.8 µM | SF-268 18.5 µM | SF-539 27.1 µM | SK-MEL-2 17 µM | SNB-19 15.7 µM | SW-620 7.85 µM | TK-10 32.3 µM | UACC-257 6.68 µM | UACC-62 2.4 µM
